Test results: US20070244086A1, “3-Phenyl-Pyrazole Derivatives as Modulators of the 5-Ht2A Serotonin Receptor Useful for the Treatment of Disorders Related Thereto” (Arena Pharmaceuticals, Inc., priority 2004, published 2007)

target: T1, human 5-HT2A receptor (Homo sapiens, UniProt P28223); assay: [125I]DOI radioligand binding assay; conditions: 0.5 nM [125I]DOI, membranes of COS7 cells transfected with human 5-HT2A receptor
T1 construct: expressed in transfected cells; host or cells: COS7 cells, transient transfection, pCMV vector; crude membranes
T1 sequence (P28223 whole entry): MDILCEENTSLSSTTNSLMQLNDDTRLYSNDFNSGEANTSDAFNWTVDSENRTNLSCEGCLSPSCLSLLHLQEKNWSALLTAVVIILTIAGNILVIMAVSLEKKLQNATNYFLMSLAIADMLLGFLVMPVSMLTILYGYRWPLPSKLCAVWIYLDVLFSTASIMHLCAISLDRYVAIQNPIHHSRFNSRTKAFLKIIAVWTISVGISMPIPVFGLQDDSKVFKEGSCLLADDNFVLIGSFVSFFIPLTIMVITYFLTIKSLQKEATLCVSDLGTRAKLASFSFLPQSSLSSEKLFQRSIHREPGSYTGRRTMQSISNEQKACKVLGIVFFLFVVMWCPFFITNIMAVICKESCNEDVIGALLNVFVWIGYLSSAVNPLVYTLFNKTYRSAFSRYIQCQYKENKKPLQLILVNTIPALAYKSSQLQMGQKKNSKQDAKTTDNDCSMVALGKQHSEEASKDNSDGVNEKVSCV
Experimental: Crude membrane pellets were stored at −80° C. until used for radioligand binding assays.

Row | IC50 | SMILES
1 | 1.1 nM | CC(C)COC(=O)Nc1ccc(OCCN2CCCC2)c(-c2c(Br)cnn2C)c1 [Compound 23, [3-(4-Bromo-2-methyl-2H-pyrazol-3-yl)-4-(2-pyrrolidin-1-yl-ethoxy)-phenyl]-carbamic acid isobutyl ester]
2 | 10.2 nM | Cn1nccc1-c1cc(NC(=O)NCc2ccc(Cl)cc2)ccc1OCCN1CCCCC1 [Compound 45, 1-(4-Chloro-benzyl)-3-[3-(2-methyl-2H-pyrazol-3-yl)-4-(2-piperidin-1-yl-ethoxy)-phenyl]-urea]
3 | 13.7 nM | Cn1nccc1-c1cc(NC(=O)Cc2ccc(F)cc2)ccc1OCCN1CCOCC1 [Compound 160, 2-(4-Fluoro-phenyl)-N-[3-(2-methyl-2H-pyrazol-3-yl)-4-(2-morpholin-4-yl-ethoxy)-phenyl]-acetamide]
